According to US20250262298A1, “STING MODULATOR COMPOUNDS WITH SULFAMATE LINKAGES, AND METHODS OF MAKING AND USING” (TAKEDA PHARMACEUTICAL COMPANY LIMITED, priority 2018, published 2025):

How the values were obtained:
[1] = test system: THP1-Dual cells (Lucia luciferase under ISG54 promoter); assay: THP-1 Dual Lucia reporter gene assay; format: cell-based, human; conditions: luminescence signal induction, 20 hours at 37° C.
Experimental: THP1-Dual™ cells (InvivoGen #thpd-nfis) were derived from the human THP-1 monocyte cell line by stable integration of the Lucia luciferase gene, a secreted luciferase reporter gene, under the control of an ISG54 (interferon-stimulated gene) minimal promoter in conjunction with five interferon (IFN)-stimulated response elements. On the day of experiment, the cells were plated to a black, 384-well plate (Corning 356697) at 7500 cells/25 μl per well density in growth media (RPMI 1640, 2 mM L-glutamine, 25 mM HEPES, 10% heat-inactivated fetal bovine serum, 100 μg/mL Normocin™, 50 U/mL-50 μg/mL Pen-Strep, 10 μg/mL of blasticidin, and 100 μg/mL of Zeocin). The cell plates were dosed with 62.5 nL of the testing compounds, and then incubated at 37° C. for 20 hours. At the end of the incubation, 15 μL/well of the QUANTI-Luc™ (InvivoGen #rep-qlc1) were added, and luminescence was measured immediately using the LeadSeeker.
For the assay method described above, test compound percent luminescence signal induction, at various concentrations, was calculated relative to untreated and DMSO only treated samples. Compound concentration versus percent signal induction curves were fitted to generate EC50 values. One skilled in the art will appreciate that the values generated as EC50 values are subject to experimental variation.

Human STING = Human STING (Homo sapiens (Human), UniProt Q86WV6, H232R); assay: Human STING TR-FRET assay; format: binding; conditions: human STING residues 140-379 (H232R), 100 nM; fluorescein labeled ligand 100 nM; 60 minutes at rt
Human STING, sequence (Q86WV6 140-379 H232R): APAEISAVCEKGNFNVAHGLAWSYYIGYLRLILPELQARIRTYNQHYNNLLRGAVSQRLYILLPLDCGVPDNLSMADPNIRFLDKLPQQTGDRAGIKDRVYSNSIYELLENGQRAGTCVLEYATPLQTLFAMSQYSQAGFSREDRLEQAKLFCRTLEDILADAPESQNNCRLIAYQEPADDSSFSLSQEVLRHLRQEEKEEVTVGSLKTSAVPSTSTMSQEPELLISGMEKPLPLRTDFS
Experimental: Human STING (accession number GB:BC047779) DNA encoding residues 140-379 (H232R) was cloned into pET28 as N-terminal HIS and C-terminal Avi tagged fusion protein, and a rTEV cleavage site between HIS tag and STING. The sequence was verified before recombinant protein expression using E. coli expression system.
For expression, STING expression vector was transformed into BL21(DE3) cells. The expression was induced by adding IPTG and expressing in 16° C. for 20 hours.
For purification, STING was purified by Nickel affinity resin (Thermo Scientific #25215), followed by TEV enzyme cleavage and Superdex 200 column (GE Healthcare #28-9893-35) purification. For site directed in vitro biotinylation, purified Avi-tagged STING protein was incubated with Biotin (SUPELCO #47868), ATP (SIGMA #A-7699) and BirA enzyme, followed by further purification through a Superdex 200 column (GE Healthcare #28-9893-35). Biotinylation was confirmed by Mass Spectrometry analysis.
40 nL of test compounds in DMSO were added to wells in a white, 384 well microtitre plate (Greiner 784075). 2 uL STING assay buffer (PBS and 0.01% BSA) containing fluorescein labeled ligand (c[G(2′,5′)p-2′-Fluo-AHC-A(3′,5′)p]-Biolog C 195, 100 nM final) and Tb labeled Streptavidin (Streptavidin-Tb cryptate-CisBio 610SATLB) were added. Then 2 uL STING assay buffer containing STING protein (100 nM final) was added and the mixture was incubated at rt for 60 minutes. The plates were then read on a BMG PheraStar Plus reader (LanthaScreen module).
For the assay method described above, test compound percent inhibition, at various concentrations, was calculated relative to untreated and DMSO only treated samples. Compound concentration versus percent inhibition curves were fitted to generate IC50 values. One skilled in the art will appreciate that the values generated either as percentage inhibition at a single concentration or IC50 values are subject to experimental variation.

SMILES | EC50 ([1]; Homo sapiens, THP1-Dual, 20 h) [µM] | EC50 [1] [µM] | IC50 (Human STING) [µM]
Nc1nc2c(ncn2[C@@H]2O[C@@H]3COP(=O)(S)O[C@H]4C[C@H](Oc5ccncn5)C[C@@H]4CNS(=O)(=O)O[C@@H]2C3)c(=O)[nH]1 (single isomer, unassigned) [Compound I-1] | > 25 | – | –
Nc1nc2c(ncn2[C@@H]2O[C@@H]3CNS(=O)(=O)O[C@H]4C[C@H](n5cnc6c(N)ncnc65)O[C@@H]4COP(=O)(S)O[C@@H]2C3)c(=O)[nH]1 (single isomer, unassigned) [Compound I-2a] | – | > 25 | > 100
Nc1nc2c(ncn2[C@@H]2O[C@@H]3CNS(=O)(=O)O[C@H]4C[C@H](n5cnc6c(N)ncnc65)O[C@@H]4COP(=O)(S)O[C@@H]2C3)c(=O)[nH]1 (single isomer, unassigned) [Compound I-2b] | – | 10 to 25 | 10 to 100
Nc1nc2c(ncn2[C@@H]2O[C@@H]3COP(=O)(S)O[C@H]4C[C@H](n5cnc6c(N)ncnc65)O[C@@H]4CNS(=O)(=O)O[C@@H]2C3)c(=O)[nH]1 (single isomer, unassigned) [Compound I-3] | < 1 | – | < 1
Nc1nc2c(ncn2[C@@H]2O[C@@H]3COP(=O)(S)O[C@H]4[C@@H](F)[C@H](n5cnc6c(N)ncnc65)O[C@@H]4CNS(=O)(=O)O[C@@H]2C3)c(=O)[nH]1 (single isomer, unassigned) [Compound I-4a] | < 1 | – | < 1
Nc1nc2c(ncn2[C@@H]2O[C@@H]3COP(=O)(S)O[C@H]4[C@@H](F)[C@H](n5cnc6c(N)ncnc65)O[C@@H]4CNS(=O)(=O)O[C@@H]2C3)c(=O)[nH]1 (single isomer, unassigned) [Compound I-4b] | – | < 1 | < 1
Nc1nc2c(ncn2[C@@H]2O[C@@H]3CNS(=O)(=O)O[C@H]4C[C@H](n5cnc6cncnc65)C[C@@H]4COP(=O)(S)O[C@@H]2C3)c(=O)[nH]1 (single isomer, unassigned) [Compound I-6] | > 25 | – | > 100
Nc1nc2c(ncn2[C@@H]2O[C@@H]3COP(=O)(S)O[C@H]4C[C@H](n5nnc6cncnc65)C[C@@H]4CNS(=O)(=O)O[C@@H]2C3)c(=O)[nH]1 (single isomer, unassigned) [Compound I-7] | > 25 | – | 10 to 100
Nc1nc2c(ncn2[C@@H]2O[C@@H]3COP(=O)(S)O[C@H]4C[C@H](n5cnc6cncnc65)C[C@@H]4CNS(=O)(=O)O[C@@H]2C3)c(=O)[nH]1 (single isomer, unassigned) [Compound I-8] | 1 to 10 | – | 1 to 10
Nc1nc2c(ncn2[C@@H]2O[C@@H]3COP(=O)(S)O[C@H]4[C@@H](F)[C@H](n5cnc6cncnc65)O[C@@H]4CNS(=O)(=O)O[C@@H]2[C@@H]3F)c(=O)[nH]1 (single isomer, unassigned) [Compound I-10] | < 1 | – | < 1
Nc1nc2c(ncn2[C@@H]2O[C@@H]3COP(=O)(S)O[C@H]4[C@@H](F)[C@H](n5cnc6cncnc65)O[C@@H]4CNS(=O)(=O)O[C@@H]2C3)c(=O)[nH]1 (single isomer, unassigned) [Compound I-11a] | < 1 | – | < 1
Nc1nc2c(ncn2[C@@H]2O[C@@H]3COP(=O)(S)O[C@H]4[C@@H](F)[C@H](n5cnc6cncnc65)O[C@@H]4CNS(=O)(=O)O[C@@H]2C3)c(=O)[nH]1 (single isomer, unassigned) [Compound I-11b] | – | < 1 | –
Nc1nc2c(ncn2[C@@H]2O[C@@H]3COS(=O)(=O)N[C@H]4C[C@H](n5cnc6c(N)ncnc65)O[C@@H]4COP(=O)(S)O[C@@H]2C3)c(=O)[nH]1 (single isomer, unassigned) [Compound I-12a] | < 1 | – | < 1
Nc1nc2c(ncn2[C@@H]2O[C@@H]3COS(=O)(=O)N[C@H]4C[C@H](n5cnc6c(N)ncnc65)O[C@@H]4COP(=O)(S)O[C@@H]2C3)c(=O)[nH]1 (single isomer, unassigned) [Compound I-12b] | > 25 | – | 1 to 10
Nc1nc2c(ncn2[C@@H]2O[C@@H]3COP(=O)(S)O[C@H]4[C@@H](F)[C@H](n5cnc6cncnc65)O[C@@H]4CNS(=O)(=O)O[C@@H]2[C@@H]3OCC(F)(F)F)c(=O)[nH]1 (single isomer, unassigned) [Compound I-13a] | < 1 | – | < 1
Nc1nc2c(ncn2[C@@H]2O[C@@H]3COP(=O)(S)O[C@H]4[C@@H](F)[C@H](n5cnc6cncnc65)O[C@@H]4CNS(=O)(=O)O[C@@H]2[C@@H]3OCC(F)(F)F)c(=O)[nH]1 (single isomer, unassigned) [Compound I-13b] | – | < 1 | < 1
Nc1nc2c(ncn2[C@@H]2O[C@@H]3CO[P@](=O)(S)O[C@@H]4[C@@H](CNS(=O)(=O)O[C@@H]2C3)C[C@@H](n2cnc3cncnc32)[C@@H]4F)c(=O)[nH]1 (single isomer, unassigned) [Compound I-14] | – | < 1 | < 1
Nc1nc2c(ncn2[C@@H]2O[C@@H]3COP(=O)(S)O[C@H]4[C@@H](F)[C@H](n5cnc6c(=O)[nH]cnc65)O[C@@H]4CNS(=O)(=O)O[C@@H]2C3)c(=O)[nH]1 (single isomer, unassigned) [Compound I-15] | < 1 | – | –
Nc1nc2c(ncn2[C@@H]2O[C@@H]3COP(=O)(S)O[C@H]4[C@@H](F)[C@H](n5cnc6c(N)ncnc65)O[C@@H]4CNS(=O)(=O)O[C@@H]2[C@@H]3F)c(=O)[nH]1 (single isomer, unassigned) [Compound I-16] | < 1 | – | < 1
Nc1nc2c(ncn2[C@@H]2O[C@@H]3COS(=O)(=O)N[C@H]4[C@@H](F)[C@H](n5cnc6c(N)ncnc65)O[C@@H]4COP(=O)(S)O[C@@H]2C3)c(=O)[nH]1 (single isomer, unassigned) [Compound I-17] | < 1 | – | < 1
Cn1cc([C@@H]2O[C@@H]3CNS(=O)(=O)O[C@@H]4C[C@@H](COP(=O)(S)O[C@H]3[C@H]2F)O[C@H]4n2cnc3c(=O)[nH]c(N)nc32)c2ncnc(N)c21 (single isomer, unassigned) [Compound I-19] | > 25 | – | 1 to 10
Nc1ncnc2c1ncn2[C@@H]1O[C@@H]2CNS(=O)(=O)O[C@@H]3C[C@@H](COP(=O)(S)O[C@H]2[C@H]1F)O[C@H]3n1cc(F)c2c(=O)[nH]cnc21 (single isomer, unassigned) [Compound I-20] | 1 to 10 | – | < 1
Nc1nc2c(ncn2[C@@H]2O[C@@H]3COP(=O)(O)O[C@H]4C[C@H](n5cnc6c(N)ncnc65)O[C@@H]4CNS(=O)(=O)O[C@@H]2C3)c(=O)[nH]1 [Compound I-5, 2-amino-9-[(5S,7R,8R,12aR,14R,15aS)-14-(6-amino-9H-purin-9-yl)-2-hydroxy-2,10,10-trioxidodecahydro-5,8-methanofuro[2,3-m][1,3,6,9,10,11,2]tetraoxathiazaphosphacyclotetradecin-7-yl]-1,9-dihydro-6H-purin-6-one] | < 1 | – | 1 to 10
Nc1nc2c(ncn2[C@@H]2O[C@@H]3CNS(=O)(=O)O[C@H]4C[C@H](n5cnc6c(N)ncnc65)O[C@@H]4COP(=O)(O)O[C@@H]2C3)c(=O)[nH]1 [Compound I-9, 2-amino-9-[(5S,7R,8R,12aR,14R,15aS)-14-(6-amino-9H-purin-9-yl)-10-hydroxy-2,2,10-trioxidooctahydro-3H,12H-5,8-methanofuro[3,2-l][1,3,6,11,10,9,2]tetraoxathiazaphosphacyclotetradecin-7-yl]-1,9-dihydro-6H-purin-6-one] | > 25 | – | 10 to 100
